Laboratory results: US20050209162A1, “Methods for monitoring IL-18” (priority 2003, published 2005)

Tests used:
[1] = tested on: IL-18; experiment: Serum IL-18 levels (sandwich IL-18 ELISA) in healthy male subjects treated with oral Compound A for 14 days; assay type: in vivo, human; settings: 900 mg q8 h oral
Method: Compound A was evaluated in a double-blind, randomized, placebo-controlled, oral dose, sequential group study in healthy male subjects. 9 subjects received 900 mg Compound A 14 days. 3 subjects received placebo treatment. Doses were administered three times a day at 8-hour intervals on Days 1 to 13 inclusive, and once in the morning of Day 14. All doses were administered in the fasted state.
Blood samples (1×3.5 mL) were taken by venepuncture or cannulation of a forearm vein(s).
Blood samples were collected into 3.5 mL SST Vacutainer® tubes (Becton Dickinson UK Ltd., Oxford) and, after mixing, stored at ambient temperature for at least 30 min prior to centrifugation. The samples were centrifuged, within 1 hour of collection, at 1500 g for 10 minutes at approximately 4° C. For each sample, the separated serum was transferred into two 5 mL suitably labelled polypropylene tubes (at least 0.6 mL in each tube), and stored within 2 hours of collection, at approximately −70° C. the laboratory for IL-18 assay.
IL-18 was assayed using a sandwich IL-18 ELISA technique (Human IL-18 ELISA Kit, Medical and Biological Laboratories, Nagoya, Japan). Standards, Controls and Samples were incubated in wells coated with an anti-human IL-18 monoclonal antibody. […] The developed color was then measured at an OD of 450 using a 630 nm reference filter.

[2] = Absorption and conversion to Compound B upon oral administration; assay type: in vivo; settings: converted into Compound B
[3] = target: T1, ICE (Homo sapiens, UniProt P29466); experiment: ICE inhibition constant (Ki); assay type: biochemical
T1 sequence (P29466 120-297 limits assumed): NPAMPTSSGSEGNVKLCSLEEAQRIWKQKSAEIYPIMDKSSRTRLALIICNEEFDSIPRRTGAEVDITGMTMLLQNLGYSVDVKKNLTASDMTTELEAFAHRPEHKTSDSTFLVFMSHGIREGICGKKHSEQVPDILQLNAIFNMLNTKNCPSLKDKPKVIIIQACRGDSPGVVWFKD
T1 sequence (P29466 317-404 limits assumed): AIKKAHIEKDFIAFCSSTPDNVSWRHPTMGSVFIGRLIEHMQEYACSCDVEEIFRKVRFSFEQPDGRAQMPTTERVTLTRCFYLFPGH

SMILES | inhibition of serum IL-18 concentrations (in words) ([1]; 14-day treatment period) | inhibition at 900 mg ([1]; Homo sapiens, 336 h, over 14 days of treatment, read-out: inhibition of serum IL-18 median levels) [%] | absorption upon oral administration [2] | Type of ICE inhibition [3]
CCO[C@@H]1OC(=O)C[C@@H]1NC(=O)[C@@H]1CCCN1C(=O)[C@@H](NC(=O)c1ccc(N)c(Cl)c1)C(C)(C)C [Compound A] | gradual but marked inhibition | ~60 | rapidly absorbed | 
CC(C)(C)[C@H](NC(=O)c1ccc(N)c(Cl)c1)C(=O)N1CCC[C@H]1C(=O)N[C@H](C=O)CC(=O)O [Compound B] |  |  |  | selective and reversible ICE inhibitor
